Measured values as given in US12570655B2, “Cysteine covalent modifiers of AKT1 and uses thereof” (Terremoto Biosciences, Inc., priority 2023, dated 2026).
Where two headings read alike, the source gives them in different places.

Key:
Assay type in all cases: cell-based
AKT1 E17K = target: T1, AKT1 E17K (Homo sapiens, UniProt P31749, E17K); test: Live cell AKT1 E17K target engagement by NanoBRET competitive probe displacement; settings: HEK293 cells transfected with kinase-NanoLuciferase fusion, 2 h at 37° C.
T1 construct: expressed in transfected cells; host or cells: HEK293
T1 sequence (P31749 whole entry E17K, the tested form may be a part): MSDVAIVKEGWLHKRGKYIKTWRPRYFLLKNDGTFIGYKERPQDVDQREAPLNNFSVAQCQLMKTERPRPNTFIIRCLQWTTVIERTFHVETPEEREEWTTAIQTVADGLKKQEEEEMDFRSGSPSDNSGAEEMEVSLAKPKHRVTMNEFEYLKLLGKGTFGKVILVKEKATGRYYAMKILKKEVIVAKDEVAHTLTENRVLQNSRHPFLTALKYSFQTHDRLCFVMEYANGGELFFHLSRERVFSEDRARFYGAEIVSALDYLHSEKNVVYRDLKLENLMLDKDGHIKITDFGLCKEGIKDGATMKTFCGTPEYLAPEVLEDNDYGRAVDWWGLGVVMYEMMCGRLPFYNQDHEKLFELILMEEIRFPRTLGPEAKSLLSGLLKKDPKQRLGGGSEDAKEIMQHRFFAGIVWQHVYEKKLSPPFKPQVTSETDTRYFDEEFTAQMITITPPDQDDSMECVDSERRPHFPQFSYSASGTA
In short: (§1)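 IC50 fitted (Hill, log inhibitor vs response) to BRET signal, E600/E460 ratio, measured with extracellular NanoLuc inhibitor present. Intact transfected HEK293 cells bearing NanoLuc-tagged kinase were co-incubated 2 h, 37 °C, with compound dilution series and ~EC50 ATP-competitive fluorescent tracer.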

AKT1 WT = target: T2, AKT1 WT (Homo sapiens, UniProt P31749); test: Live cell AKT1 WT target engagement by NanoBRET competitive probe displacement; settings: HEK293 cells transfected with kinase-NanoLuciferase fusion, 2 h at 37° C.
T2 construct: expressed in transfected cells; host or cells: HEK293
T2 sequence (P31749 whole entry, the tested form may be a part): as the sequence (P31749 whole entry E17K, the tested form may be a part) above, with K17E counted along it
In short: as §1

[1] = tested on: LAPC4 prostate cancer cells; test: Antiproliferative effects in LAPC4 cells (CellTiter Glo); settings: LAPC4 cells (AKT1 E17K allele), read-out: LAPC4 proliferation IC50
In short: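 Growth inhibition was measured by CellTiter Glo ATP luminescence after 72 h compound exposure of 1,000 seeded cells/well. The cells were AKT1 E17K-expressing LAPC4 prostate cancer cells maintained in IMDM plus 12% FBS. IC50 values came from Hill-equation fits.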

AKT2 = target: T3, AKT2 (Homo sapiens, UniProt P31751); test: Live cell AKT2 target engagement by NanoBRET competitive probe displacement; settings: HEK293 cells transfected with kinase-NanoLuciferase fusion, 2 h at 37° C.
T3 construct: expressed in transfected cells; host or cells: HEK293
T3 sequence (P31751 whole entry, the tested form may be a part): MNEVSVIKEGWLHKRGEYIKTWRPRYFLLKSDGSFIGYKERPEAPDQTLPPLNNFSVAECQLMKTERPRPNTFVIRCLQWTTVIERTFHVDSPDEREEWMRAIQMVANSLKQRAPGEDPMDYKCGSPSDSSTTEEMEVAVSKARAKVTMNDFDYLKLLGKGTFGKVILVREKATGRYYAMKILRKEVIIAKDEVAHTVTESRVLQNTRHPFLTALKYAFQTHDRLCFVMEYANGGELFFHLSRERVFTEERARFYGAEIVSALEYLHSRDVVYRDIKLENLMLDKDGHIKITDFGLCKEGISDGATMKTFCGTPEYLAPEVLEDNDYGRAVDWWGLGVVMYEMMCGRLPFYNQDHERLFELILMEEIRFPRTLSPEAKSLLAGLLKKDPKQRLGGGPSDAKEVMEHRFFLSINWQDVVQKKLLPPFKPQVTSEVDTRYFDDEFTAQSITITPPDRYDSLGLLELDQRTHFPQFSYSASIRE
In short: as §1

| Structure (SMILES) | IC50 (AKT1 E17K) [nM] | IC50 (AKT1 WT) [nM] | IC50 ([1]; Homo sapiens, LAPC4, 72 h) [nM] | IC50 (AKT2) [nM] | IC50 ([1]; 72 h) [nM] |
| --- | --- | --- | --- | --- | --- |
| C=CC(=O)NCCc1ccccc1C(=O)N[C@H]1CCc2cc(-n3c(-c4cccnc4N)nc4ccc(-n5cccn5)nc43)ccc21 [Example 268, (S)-2-(2-acrylamidoethyl)-N-(5-(2-(2-aminopyridin-3-yl)-5-(1H-pyrazol-1-yl)-3H-imidazo[4,5-b]pyridin-3-yl)-2,3-dihydro-1H-inden-1-yl)benzamide] | 14.8 | 297 | 358 | 55.9 |  |
| C=CC(=O)N1CCC(N[C@H]2CCc3cc(-n4c(-c5cccnc5N)nc5ccc(-n6ccc(COC)n6)nc54)ccc32)CC1 [Example 280, 1-(4-{[(1S)-5-[2-(2-aminopyridin-3-yl)-5-[3-(methoxymethyl)pyrazol-1-yl]imidazo[4,5-b]pyridin-3-yl]-2,3-dihydro-1H-inden-1-yl]amino}piperidin-1-yl)prop-2-en-1-one] | 20.3 | 127 | 104 | 82.1 |  |
| C=CC(=O)N1CCC(N[C@H]2CCc3cc(-n4c(-c5cccnc5N)nc5ccc(-n6ccc(C(C)C)n6)nc54)ccc32)CC1 [Example 281, 1-(4-{[(1S)-5-[2-(2-aminopyridin-3-yl)-5-(3-isopropylpyrazol-1-yl)imidazo[4,5-b]pyridin-3-yl]-2,3-dihydro-1H-inden-1-yl]amino}piperidin-1-yl)prop-2-en-1-one] | 15.4 | 254 | 253 | 80.8 |  |
| C=CC(=O)N1CCC(N[C@H]2CCc3cc(-n4c(-c5ccccc5)nc5ccc(-n6ccc(F)n6)nc54)ccc32)CC1 [Example 282, 1-(4-{[(1S)-5-[5-(3-fluoropyrazol-1-yl)-2-phenylimidazo[4,5-b]pyridin-3-yl]-2,3-dihydro-1H-inden-1-yl]amino}piperidin-1-yl)prop-2-en-1-one] | 15.2 | 1590 | 464 | 86 |  |
| C=CC(=O)N1CCC(N[C@H]2CCc3cc(-n4c(-c5cccnc5N)nc5ccc(-n6ccc(C7CCC7)n6)nc54)ccc32)CC1 [Example 283, 1-(4-{[(1S)-5-[2-(2-aminopyridin-3-yl)-5-(3-cyclobutylpyrazol-1-yl)imidazo[4,5-b]pyridin-3-yl]-2,3-dihydro-1H-inden-1-yl]amino}piperidin-1-yl)prop-2-en-1-one] | 9.03 | 133 | 835 | 42 |  |
| C=CC(=O)N1CC2CC1CCC2N[C@H]1CCc2cc(-n3c(-c4cccnc4N)nc4ccc(-n5cccn5)nc43)ccc21 (stereo partly drawn) [Example 294, 1-(2-(((S)-5-(2-(2-aminopyridin-3-yl)-5-(1H-pyrazol-1-yl)-3H-imidazo[4,5-b]pyridin-3-yl)-2,3-dihydro-1H-inden-1-yl)amino)-6-azabicyclo[3.2.1]octan-6-yl)prop-2-en-1-one] | 28.6 | 301 | 217 | 56.7 |  |
| C=CC(=O)N1CCC(N[C@H]2CCc3cc(-n4c(-c5cccnc5N)nc5ccc(-n6cccn6)nc54)ccc3C2)CC1 [Example 296, 1-(4-{[(2S)-6-[2-(2-aminopyridin-3-yl)-5-(pyrazol-1-yl)imidazo[4,5-b]pyridin-3-yl]-1,2,3,4-tetrahydronaphthalen-2-yl]amino}piperidin-1-yl)prop-2-en-1-one] | 33.2 | 93.4 | 59.1 | 36.6 |  |
| C=CC(=O)N1CCC(N[C@H]2CCc3cc(-n4c(-c5cccnc5N)nc5ccc(-n6ccc(C7CCCC7)n6)nc54)ccc32)CC1 [Example 306, 1-(4-{[(1S)-5-[2-(2-aminopyridin-3-yl)-5-(3-cyclopentylpyrazol-1-yl)imidazo[4,5-b]pyridin-3-yl]-2,3-dihydro-1H-inden-1-yl]amino}piperidin-1-yl)prop-2-en-1-one] | 15.7 | 186 | 203 | 72.3 |  |
| C=CC(=O)N1CCC(N[C@H]2CCc3cc(-n4c(-c5cccnc5N)nc5ccc(-n6cccn6)nc54)ccc32)C(C)(F)C1 (stereo partly drawn) [Example 308, 1-((3*)-4-(((S)-5-(2-(2-aminopyridin-3-yl)-5-(1H-pyrazol-1-yl)-3H-imidazo[4,5-b]pyridin-3-yl)-2,3-dihydro-1H-inden-1-yl)amino)-3-fluoro-3-methylpiperidin-1-yl)prop-2-en-1-one] | 11.8 | 307 | 300 | 62.3 |  |
| C=CC(=O)N1CCC(N[C@@H]2c3ccc(-n4c(-c5cccnc5N)nc5ccc(-c6ccn(C(F)F)n6)nc54)cc3CC2F)CC1 (stereo partly drawn) [Example 310, 1-(4-(((1R,2*)-5-(2-(2-aminopyridin-3-yl)-5-(1-(difluoromethyl)-1H-pyrazol-3-yl)-3H-imidazo[4,5-b]pyridin-3-yl)-2-fluoro-2,3-dihydro-1H-inden-1-yl)amino)piperidin-1-yl)prop-2-en-1-one] | 34.5 | 1480 |  | 277 | 553 |
| C=CC(=O)N1CCC(N[C@H]2CCc3cc(-n4c(-c5cccnc5N)nc5cc(F)c(-n6cccn6)nc54)ccc32)CC1 [Example 313, 1-(4-{[(1S)-5-[2-(2-aminopyridin-3-yl)-6-fluoro-5-(pyrazol-1-yl)imidazo[4,5-b]pyridin-3-yl]-2,3-dihydro-1H-inden-1-yl]amino}piperidin-1-yl)prop-2-en-1-one] | 21.8 | 518 | 347 | 113 |  |
| C=CC(=O)N1CCC(N[C@H]2CCc3cc(-n4c(-c5cccnc5N)nc5ccc(-n6ccc(OC7CC7)n6)nc54)ccc32)CC1 [Example 314, 1-(4-{[(1S)-5-[2-(2-aminopyridin-3-yl)-5-(3-cyclopropoxypyrazol-1-yl)imidazo[4,5-b]pyridin-3-yl]-2,3-dihydro-1H-inden-1-yl]amino}piperidin-1-yl)prop-2-en-1-one] | 7.44 | 95.1 | 54.9 | 23.8 |  |
| C=CC(=O)N1CCC(N[C@H]2CCc3cc(-n4c(-c5cccnc5N)nc5c(C#N)cc(-n6cccn6)nc54)ccc32)CC1 [Example 315, 2-(2-aminopyridin-3-yl)-3-[(1S)-1-{[1-(prop-2-enoyl)piperidin-4-yl]amino}-2,3-dihydro-1H-inden-5-yl]-5-(pyrazol-1-yl)imidazo[4,5-b]pyridine-7-carbonitrile] | 14.3 | 183 | 120 | 70.3 |  |
| C=CC(=O)N1CCC(N[C@H]2CCc3cc(-n4c(-c5cccnc5N)nc5ccc(-c6nnc(C7CC7)s6)nc54)ccc32)CC1 [Example 320, (S)-1-(4-((5-(2-(2-aminopyridin-3-yl)-5-(5-cyclopropyl-1,3,4-thiadiazol-2-yl)-3H-imidazo[4,5-b]pyridin-3-yl)-2,3-dihydro-1H-inden-1-yl)amino)piperidin-1-yl)prop-2-en-1-one] | 11.8 | 290 | 78.2 | 45.5 |  |
| C=CC(=O)N1CCC(N[C@H]2CCc3cc(-n4c(-c5cccnc5N)nc5ccc(-n6ccc(C7CCOCC7)n6)nc54)ccc32)CC1 [Example 321, 1-(4-{[(1S)-5-[2-(2-aminopyridin-3-yl)-5-[3-(oxan-4-yl)pyrazol-1-yl]imidazo[4,5-b]pyridin-3-yl]-2,3-dihydro-1H-inden-1-yl]amino}piperidin-1-yl)prop-2-en-1-one] | 7.19 | 158 | 80.7 | 24.2 |  |
